Patent US11793849B2, “Method of Chinese herbal medicine extract used for treating multiple diseases caused by drug resistant bacteria infection” (priority 2016, dated 2023)
Converted amounts (≈) assume the structure as drawn. Read-outs that look alike come from different tables or passages of the source.

How the values were obtained:
[1] = system: ESBL-producing ECO; test: MIC determination, microdilution broth method; type: cell-based, Escherichia coli
Experimental: (§1) Determination methods of a Minimal Inhibitory Concentration (MIC) and a Minimum Bactericidal Concentration (MBC) of a test product: the MIC and the MBC of the Pithecellobium clypearia Benth water or ethanol extract to the MDRAB are determined by a microdilution broth method. And it is operated by referring to the microdilution broth method recommended by National Committee for Clinical Laboratory Standards (NCCLS).
(§2) By determining the MIC and the MBC of the drug and making statistics of the data to obtain MIC50, MIC90, MBC50 and MBC90, the effect of the MDRA resistance of the drug is evaluated.

[2] = system: ESBL-producing ECO; test: Checkerboard assay (combined-use MIC, FIC); type: cell-based, Escherichia coli; conditions: 20 ESBL-producing ECOs
Experimental: Test methods of the sensibilization effects of the test product to similar antibiotics: it is operated by referring to a checkerboard assay recommended by NCCLS.
The checkerboard assay is performed in a 96-pore sterile culture plate.
Calculation of a Fractional Inhibitory Concentration (FIC): FIC=S20b combined-use MIC/S20b single-use MIC+antibiotic combined-use MIC/antibiotic single-use MIC. By calculating the FIC, the combined antibacterial interaction between the EA and the antibiotic is evaluated, with synergistic effect for FIC≤0.5, additive effect for 0.5<FIC≤1, indifferent effect for 1<FIC≤2 and antagonistic effect for FIC>2. According to a sterile growth pore, the optimum concentration ratio between the EA and the antibiotic is founded out. At last, the effect of the EA to strengthen the efficacy of the antibiotic is evaluated.

[3] = system: ATCC25922; test: MIC determination, control strain; type: cell-based
[4] = system: ATCC25922; test: MIC determination, control strain ATCC25922; type: cell-based; conditions: EA = 95% ethanol extract
[5] = system: MDRPA; test: MIC determination, microdilution broth method;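 also: broth microdilution per NCCLS recommendations, testing Pithecellobium clypearia water or ethanol extracts against multidrug-resistant Pseudomonas aeruginosa, with MIC50 and MIC90 derived statistically from individual MICs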
Experimental: as §1, §2
Test method: the MDRPA (serial No.: P1-P20) strains are tested and are evaluated with reference to the method in the first embodiment.

[6] = EA = 10% ethanol extract, 20 ESBL-producing ECO strains
[7] = EA = 60% ethanol extract, 20 ESBL-producing ECO strains
[8] = EA = 95% ethanol extract, ESBL-producing ECOs
[9] = EA = water extract, 20 ESBL-producing ECO strains
[10] = single use, 20 ESBL-producing ECOs, section of the 10% ethanol extract
[11] = single use, 20 ESBL-producing ECOs, section of the 60% ethanol extract
[12] = single use, 20 ESBL-producing ECOs, section of the 95% ethanol extract
[13] = antibiotic with 10% ethanol extract
[14] = antibiotic with 60% ethanol extract
[15] = antibiotic with 95% ethanol extract
[16] = 20 MDRPAs, EA = 60% ethanol extract
[17] = 20 MDRPAs, EA = 95% ethanol extract
[18] = MDRPAs P1-P20, single use, EA=P. clypearia 10% ethanol extract
[19] = MDRPAs P1-P20, single use, EA=P. clypearia water extract
[20] = single use, 20 MDRPAs, section of the 10% ethanol extract
[21] = single use, 20 MDRPAs, section of the 60% ethanol extract
[22] = single use, 20 MDRPAs, section of the 95% ethanol extract

NCC[C@H](O)C(=O)N[C@@H]1C[C@H](N)[C@@H](O[C@H]2O[C@H](CN)[C@@H](O)[C@H](O)[C@H]2O)[C@H](O)[C@H]1O[C@H]1O[C@H](CO)[C@@H](O)[C@H](N)[C@H]1O [AMK, Amikacin]
MIC50 [1, 6]: 16 µg/mL (≈ 27.3 µM)
MIC90 [1, 6]: 64 µg/mL (≈ 109 µM)
MIC Range [1, 6]: 4 to 512 µg/mL
MIC50 [1, 7]: 16 µg/mL (≈ 27.3 µM)
MIC90 [1, 7]: 64 µg/mL (≈ 109 µM)
MIC Range [1, 7]: 4 to 512 µg/mL
MIC50 [1, 8]: 16 µg/mL (≈ 27.3 µM)
MIC90 [1, 8]: 64 µg/mL (≈ 109 µM)
MIC Range [1, 8]: 4 to 512 µg/mL
MIC50 [1, 9]: 16 µg/mL (≈ 27.3 µM)
MIC90 [1, 9]: 64 µg/mL (≈ 109 µM)
MIC Range [1, 9]: 4 to 512 µg/mL
MIC ([1]; Escherichia coli): 128 µg/mL (≈ 219 µM)
MIC50 ([1]; Escherichia coli, single use, 20 ESBL-producing ECOs, section of the water extract, read-out: MIC50): 16 µg/mL (≈ 27.3 µM)
MIC90 ([1]; Escherichia coli, single use, 20 ESBL-producing ECOs, section of the water extract, read-out: MIC90): 64 µg/mL (≈ 109 µM)
MIC50 [1, 10]: 16 µg/mL (≈ 27.3 µM)
MIC90 [1, 10]: 64 µg/mL (≈ 109 µM)
MIC50 [1, 11]: 16 µg/mL (≈ 27.3 µM)
MIC90 [1, 11]: 64 µg/mL (≈ 109 µM)
MIC50 [1, 12]: 16 µg/mL (≈ 27.3 µM)
MIC90 [1, 12]: 64 µg/mL (≈ 109 µM)
FIC, all strains [2, 13]: ≤ 2
MIC50 of the antibiotic after combined use [2, 13]: 4 µg/mL
MIC90 of the antibiotic after combined use [2, 13]: 16 µg/mL
reduction of the antibiotic's MIC50 vs single use [2, 13]: 75%
reduction of the antibiotic's MIC90 vs single use [2, 13]: 75%
share of strains with FIC ≤ 0.5 [2, 13]: 50%
FIC, all strains [2, 14]: ≤ 2
MIC50 of the antibiotic after combined use [2, 14]: 4 µg/mL
MIC90 of the antibiotic after combined use [2, 14]: 8 µg/mL
reduction of the antibiotic's MIC50 vs single use [2, 14]: 75%
share of strains with FIC ≤ 0.5 [2, 14]: 70%
FIC, all strains [2, 15]: ≤ 2
MIC50 of the antibiotic after combined use [2, 15]: 4 µg/mL
MIC90 of the antibiotic after combined use [2, 15]: 16 µg/mL
reduction of the antibiotic's MIC50 vs single use [2, 15]: 75%
reduction of the antibiotic's MIC90 vs single use [2, 15]: 75%
share of strains with FIC ≤ 0.5 [2, 15]: 50%
FIC, all strains ([2]; antibiotic with water extract): ≤ 2
MIC50 of the antibiotic after combined use ([2]; antibiotic with water extract): 4 µg/mL
MIC90 of the antibiotic after combined use ([2]; antibiotic with water extract): 16 µg/mL
reduction of the antibiotic's MIC50 vs single use ([2]; antibiotic with water extract): 75%
reduction of the antibiotic's MIC90 vs single use ([2]; antibiotic with water extract): 75%
share of strains with FIC ≤ 0.5 ([2]; antibiotic with water extract): 50%
MIC ([3]; EA = 10% ethanol extract): 4 µg/mL (≈ 6.83 µM)
MIC ([3]; EA = 60% ethanol extract): 4 µg/mL (≈ 6.83 µM)
MIC ([3]; EA = water extract, read-out: MIC): 4 µg/mL (≈ 6.83 µM)
MIC [4]: 4 µg/mL (≈ 6.83 µM)
MIC50 [5, 16]: 1 µg/mL (≈ 1.71 µM)
MIC90 [5, 16]: 32 µg/mL (≈ 54.6 µM)
MIC Range [5, 16]: 1 to 256 µg/mL
MIC50 [5, 17]: 1 µg/mL (≈ 1.71 µM)
MIC90 [5, 17]: 32 µg/mL (≈ 54.6 µM)
MIC Range [5, 17]: 1 to 256 µg/mL
MIC50 [5, 18]: 1 µg/mL (≈ 1.71 µM)
MIC90 [5, 18]: 32 µg/mL (≈ 54.6 µM)
MIC Range [5, 18]: 1 to 256 µg/mL
MIC50 [5, 19]: 1 µg/mL (≈ 1.71 µM)
MIC90 [5, 19]: 32 µg/mL (≈ 54.6 µM)
MIC Range [5, 19]: 1 to 256 µg/mL
MIC50 ([5]; Pseudomonas aeruginosa): 1 µg/mL (≈ 1.71 µM)
MIC90 ([5]; Pseudomonas aeruginosa): 32 µg/mL (≈ 54.6 µM)
MIC ([5]; Pseudomonas aeruginosa, read-out: MIC (single use), strain P1, EA=P. clypearia 10% ethanol extract): 1 µg/mL (≈ 1.71 µM)
MIC ([5]; Pseudomonas aeruginosa, read-out: MIC (single use), strain P1, EA=P. clypearia water extract): 1 µg/mL (≈ 1.71 µM)
MIC ([5]; Pseudomonas aeruginosa, read-out: MIC (single use), strain P2, EA=P. clypearia 10% ethanol extract): 1 µg/mL (≈ 1.71 µM)
MIC ([5]; Pseudomonas aeruginosa, read-out: MIC (single use), strain P2, EA=P. clypearia water extract): 1 µg/mL (≈ 1.71 µM)
MIC ([5]; Pseudomonas aeruginosa, read-out: MIC (single use), strain P3, EA=P. clypearia 10% ethanol extract): 4 µg/mL (≈ 6.83 µM)
MIC ([5]; Pseudomonas aeruginosa, read-out: MIC (single use), strain P3, EA=P. clypearia water extract): 4 µg/mL (≈ 6.83 µM)
MIC ([5]; Pseudomonas aeruginosa, read-out: MIC (single use), strain P4, EA=P. clypearia 10% ethanol extract): 1 µg/mL (≈ 1.71 µM)
MIC ([5]; Pseudomonas aeruginosa, read-out: MIC (single use), strain P4, EA=P. clypearia water extract): 1 µg/mL (≈ 1.71 µM)
MIC ([5]; Pseudomonas aeruginosa, read-out: MIC (single use), strain P5, EA=P. clypearia 10% ethanol extract): 2 µg/mL (≈ 3.42 µM)
MIC ([5]; Pseudomonas aeruginosa, read-out: MIC (single use), strain P5, EA=P. clypearia water extract): 2 µg/mL (≈ 3.42 µM)
MIC ([5]; Pseudomonas aeruginosa, read-out: MIC (single use), strain P6, EA=P. clypearia 10% ethanol extract): 256 µg/mL (≈ 437 µM)
MIC ([5]; Pseudomonas aeruginosa, read-out: MIC (single use), strain P6, EA=P. clypearia water extract): 256 µg/mL (≈ 437 µM)
MIC ([5]; Pseudomonas aeruginosa, read-out: MIC (single use), strain P7, EA=P. clypearia 10% ethanol extract): 1 µg/mL (≈ 1.71 µM)
MIC ([5]; Pseudomonas aeruginosa, read-out: MIC (single use), strain P7, EA=P. clypearia water extract): 1 µg/mL (≈ 1.71 µM)
MIC ([5]; Pseudomonas aeruginosa, read-out: MIC (single use), strain P8, EA=P. clypearia 10% ethanol extract): 1 µg/mL (≈ 1.71 µM)
MIC ([5]; Pseudomonas aeruginosa, read-out: MIC (single use), strain P8, EA=P. clypearia water extract): 1 µg/mL (≈ 1.71 µM)
MIC ([5]; Pseudomonas aeruginosa, read-out: MIC (single use), strain P9, EA=P. clypearia 10% ethanol extract): 1 µg/mL (≈ 1.71 µM)
MIC ([5]; Pseudomonas aeruginosa, read-out: MIC (single use), strain P9, EA=P. clypearia water extract): 1 µg/mL (≈ 1.71 µM)
MIC ([5]; Pseudomonas aeruginosa, read-out: MIC (single use), strain P10, EA=P. clypearia 10% ethanol extract): 4 µg/mL (≈ 6.83 µM)
MIC ([5]; Pseudomonas aeruginosa, read-out: MIC (single use), strain P10, EA=P. clypearia water extract): 4 µg/mL (≈ 6.83 µM)
MIC ([5]; Pseudomonas aeruginosa, read-out: MIC (single use), strain P11, EA=P. clypearia 10% ethanol extract): 1 µg/mL (≈ 1.71 µM)
MIC ([5]; Pseudomonas aeruginosa, read-out: MIC (single use), strain P11, EA=P. clypearia water extract): 1 µg/mL (≈ 1.71 µM)
MIC ([5]; Pseudomonas aeruginosa, read-out: MIC (single use), strain P12, EA=P. clypearia 10% ethanol extract): 32 µg/mL (≈ 54.6 µM)
MIC ([5]; Pseudomonas aeruginosa, read-out: MIC (single use), strain P12, EA=P. clypearia water extract): 32 µg/mL (≈ 54.6 µM)
MIC ([5]; Pseudomonas aeruginosa, read-out: MIC (single use), strain P13, EA=P. clypearia 10% ethanol extract): 2 µg/mL (≈ 3.42 µM)
MIC ([5]; Pseudomonas aeruginosa, read-out: MIC (single use), strain P13, EA=P. clypearia water extract): 2 µg/mL (≈ 3.42 µM)
MIC ([5]; Pseudomonas aeruginosa, read-out: MIC (single use), strain P14, EA=P. clypearia 10% ethanol extract): 2 µg/mL (≈ 3.42 µM)
MIC ([5]; Pseudomonas aeruginosa, read-out: MIC (single use), strain P14, EA=P. clypearia water extract): 2 µg/mL (≈ 3.42 µM)
MIC ([5]; Pseudomonas aeruginosa, read-out: MIC (single use), strain P15, EA=P. clypearia 10% ethanol extract): 2 µg/mL (≈ 3.42 µM)
MIC ([5]; Pseudomonas aeruginosa, read-out: MIC (single use), strain P15, EA=P. clypearia water extract): 2 µg/mL (≈ 3.42 µM)
MIC ([5]; Pseudomonas aeruginosa, read-out: MIC (single use), strain P16, EA=P. clypearia 10% ethanol extract): 256 µg/mL (≈ 437 µM)
MIC ([5]; Pseudomonas aeruginosa, read-out: MIC (single use), strain P16, EA=P. clypearia water extract): 256 µg/mL (≈ 437 µM)
MIC ([5]; Pseudomonas aeruginosa, read-out: MIC (single use), strain P17, EA=P. clypearia 10% ethanol extract): 1 µg/mL (≈ 1.71 µM)
MIC ([5]; Pseudomonas aeruginosa, read-out: MIC (single use), strain P17, EA=P. clypearia water extract): 1 µg/mL (≈ 1.71 µM)
MIC ([5]; Pseudomonas aeruginosa, read-out: MIC (single use), strain P18, EA=P. clypearia 10% ethanol extract): 16 µg/mL (≈ 27.3 µM)
MIC ([5]; Pseudomonas aeruginosa, read-out: MIC (single use), strain P18, EA=P. clypearia water extract): 16 µg/mL (≈ 27.3 µM)
MIC ([5]; Pseudomonas aeruginosa, read-out: MIC (single use), strain P19, EA=P. clypearia 10% ethanol extract): 1 µg/mL (≈ 1.71 µM)
MIC ([5]; Pseudomonas aeruginosa, read-out: MIC (single use), strain P19, EA=P. clypearia water extract): 1 µg/mL (≈ 1.71 µM)
MIC ([5]; Pseudomonas aeruginosa, read-out: MIC (single use), strain P20, EA=P. clypearia 10% ethanol extract): 2 µg/mL (≈ 3.42 µM)
MIC ([5]; Pseudomonas aeruginosa, read-out: MIC (single use), strain P20, EA=P. clypearia water extract): 2 µg/mL (≈ 3.42 µM)
MIC50 [5, 20]: 1 µg/mL (≈ 1.71 µM)
MIC90 [5, 20]: 32 µg/mL (≈ 54.6 µM)
MIC50 [5, 21]: 1 µg/mL (≈ 1.71 µM)
MIC90 [5, 21]: 32 µg/mL (≈ 54.6 µM)
MIC50 [5, 22]: 1 µg/mL (≈ 1.71 µM)
MIC90 [5, 22]: 32 µg/mL (≈ 54.6 µM)
